{
  "source": "patent US20220152044A1",
  "about": "“TREATMENT OF INFLAMMATORY DISEASES OF THE CENTRAL NERVOUS SYSTEM” (PALMAYA PTY LTD, priority 2019, published 2022)",
  "key": {"cocaine use": {"test_system": "cocaine use", "experiment": "Cocaine craving in patients with naltrexone implants", "type": "in vivo, human", "conditions": "approximately 15 patients, reported by most", "description": "Approximately 15 […] patients have presented specifically for the control of their cocaine use using naltrexone implants. Approximately a third of these patients were from the United Kingdom, a third from Sydney, Australia and a third from Perth, Australia. This group of patients reported a reduction in craving with naltrexone implants, and most reported a reduction in cravings for 6-12 months after receiving the implant. Approximately half returned for repeat implants based on their observations that the naltrexone implant controlled their cravings."}, "PTSD": {"test_system": "PTSD", "experiment": "PTSD patients treated with flumazenil and/or naltrexone", "type": "in vivo, human", "conditions": "severe case, had occurred for 6 years; naltrexone implant inserted", "description": "Post Trauma Stress Disorder (PTSD), causes dysregulation of anxiety control that may damage the GABAA system and present as hypervigilance, sleep disturbance, anxiety, gastrointestinal (GIT) or bladder symptoms. We have been using flumazenil for more than 8 years to treat patients presenting complex. The infusions and implants give relief to the anxiety, sleep disturbance and the GIT symptoms as well as urinary symptoms in many well established PTSD patients.\nSleep remained normal following this. The profound recovery of sleep in patients with PTSD using flumazenil and naltrexone by continuous delivery has not previously been described."}, "HPA axis": {"test_system": "HPA axis", "experiment": "HPA axis in stressed animals", "type": "in vivo", "description": "For this reason the combination of sustained release naltrexone and sustained release flumazenil using injections, implants or infusions would be expected to limit neuro-inflammatory diseases and their symptoms."}, "craving for nicotine": {"test_system": "craving for nicotine", "experiment": "Nicotine craving and use in patients", "type": "in vivo, human", "conditions": "flumazenil by infusion or nasally/sublingually 50 to 200 micrograms per dose"}, "alcohol use": {"test_system": "alcohol use", "experiment": "Return to alcohol use on naltrexone with or without flumazenil", "type": "in vivo, human", "conditions": "naltrexone 2 ng/ml; flumazenil 40 to 160 μg/hour where combined", "experimental": "We have observed that in this group of patients complain of increased irritability, increased anxiety, increased sleep disturbance, and/or increased aggressive behaviour. However, when administered together with flumazenil at a concentration of 40 to 160 μg/hour, these systems are controlled.\nFor patients with a history of relapse on naltrexone implants, the use of sustained release flumazenil with infusions initially and with a series of sustained release flumazenil implants delivering 40-160 μg/hour to sustain a concentration of 0.5 ng/ml or more appear to be useful in controlling the return to alcohol use. For example, we have shown that in women with a history of irritability and return to drinking in the premenstrual days, this treatment with sustained release flumazenil in combination with naltrexone, reduces craving and relapse patterns."}, "amphetamine use": {"test_system": "amphetamine use", "experiment": "Amphetamine / methamphetamine craving and withdrawal", "type": "in vivo, human", "conditions": "naltrexone implants, plasma concentration maintained at 2 ng/ml or higher", "experimental": "In those patients that return 2-3 weeks with extreme anxiety and a desire to return to amphetamine use, the commencement of flumazenil infusions followed by a flumazenil implant that sustains a plasma concentration of flumazenil at 0.5-2 ng/ml or more decreases the cravings, including a decrease in the desire for amphetamines and allows reduction f irritability and aggression."}, "cannabis withdrawal": {"test_system": "cannabis withdrawal", "experiment": "Withdrawal from cannabis with high THC concentrations", "type": "in vivo, human", "conditions": "naltrexone implants, plasma concentration 0.5 ng/ml to 10 ng/ml or more", "description": "Cannabis use has changed in recent years with a significant cohort describing high tetrahydrocannabinol (THC) concentrations in potent strains which are cultivated for their high THC content. In the patient group using these high concentrations of THC, we have noted that a group of patients give a clear cut history of extreme nausea, vomiting, anxiety changing to serious paranoid thoughts and delusions followed by psychosis over the first 3-5 days of ceasing drug use.\nIn a severe patient population, ondansetron may be given every 6-8 hours to assist in reducing the nausea and associated anxiety symptoms.\nOur results indicated a clear reduction in anxiety, and paranoid symptoms, allowing patients who otherwise would be unable to cope with the symptoms, to cease cannabis use."}},
  "data": [
    {"molecule": "O=C1CC[C@@]2(O)[C@H]3Cc4ccc(O)c5c4[C@@]2(CCN3CC2CC2)[C@H]1O5", "note": "[naltrexone]", "values": [
      {"measurement": "duration of reduction in cravings after receiving the implant", "setting": "cocaine use", "value": "6-12 months"},
      {"measurement": "waking at 2 am with shouting and anxiety", "setting": "PTSD", "value": "stopped immediately"},
      {"measurement": "return of the HPA axis to normal", "setting": "HPA axis", "value": "help return the HPA axis"},
      {"measurement": "craving for and use of nicotine", "setting": "craving for nicotine", "value": "reduced craving for nicotine"},
      {"measurement": "return to alcohol use", "setting": "alcohol use", "value": "return to drinking alcohol"},
      {"measurement": "craving for amphetamine use", "setting": "amphetamine use", "value": "significant reduction in craving"},
      {"measurement": "cannabis craving and impulse control", "setting": "cannabis withdrawal", "value": "reduces the craving and improves impulse control"}
    ]}
  ]
}
